# Values of other authors, collected in patent US20220211620A1, “Pain Relieving Spray” (Animal Ethics Pty Ltd, priority 2019, published 2022).
# Details: up to about; depending on the method of administration
smiles,measurement,value
CCCCN1CCCCC1C(=O)Nc1c(C)cccc1C (stereo not shown) [bupivacaine],duration of anaesthesia typically provided,6 to 12 h
